Results published in ChEMBL document CHEMBL4665792 (J Med Chem, 2020).
pIC50, pKi: −log10 of the molar value. Active and inactive are the calls of the source. No cut-off for these calls is given here.

Assays:
HT-29 [1] = experiment: Inhibition of TrxR in human HT29 cells assessed as increase in p53 to GAPDH expression ratio at 0.25 to 1 uM incubated for 24 hrs by Western blot analysis; format: cell-based
HT-29 [2] = experiment: Antiproliferation activity against human HT-29 cells assessed as decrease in number of EdU-positive cells at 0.125 to 0.5 uM incubated for 20 hrs followed by addition of EdU-labelling agent measured after 8 hrs by Hoechst-33258 staining based analysis; format: functional, cell-based; details: dose microM 0.125-0.500, time 28.0 hrs
HT-29 [3] = experiment: Induction of apoptosis in human HT-29 cells assessed as increase in expression of cleaved PARP at 0.25 to 1 uM treated for 24 hrs by Western blot analysis; format: functional, cell-based
HCT-116 [4] = experiment: Antiproliferative activity against human HCT-116 cells assessed as reduction in cell viability incubated for 24 hrs by MTT assay; format: functional, cell-based; details: HCT-116, 24 h
HT-29 [5] = experiment: Induction of apoptosis in human HT-29 cells assessed as increase in expression of Bax at 0.25 to 1 uM treated for 24 hrs by Western blot analysis; format: functional, cell-based
[6] = Inhibition of TrxR in human HT-29 cells incubated for 60 mins in presence of insulin, NADPH and Trx by DTNB reagent based assay; format: cell-based
HT-29 [7] = experiment: Binding affinity to sulfhydryl group in human HT-29 cells assessed as decrease in total content of sulfhydryl groups; format: cell-based
[8] = biological target: T1, Thioredoxin (Homo sapiens) (UniProt P10599); experiment: Inhibition of Trx in human HT-29 cells incubated for 24 hrs in presence of insulin, NADPH and DTT; format: cell-based
T1 sequence (whole entry): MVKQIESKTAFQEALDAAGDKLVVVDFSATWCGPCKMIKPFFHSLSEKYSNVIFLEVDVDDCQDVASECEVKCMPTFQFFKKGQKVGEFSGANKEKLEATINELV

HCT-116 [9] = experiment: Inhibition of TrxR in human HCT-116 cells assessed as increase in production of intracellular ROS incubated for 24 hrs by DCFH-DA staining-based flow cytometric analysis; format: cell-based
HT-29 [10] = experiment: Inhibition of TrxR in human HT-29 cells assessed as increase in production of intracellular ROS incubated for 24 hrs by DCFH-DA staining-based flow cytometric analysis; format: cell-based
HT-29 [11] = experiment: Potency index, ratio of Withangulatin A IC50 to test compound IC50 for antiproliferative activity against human HT-29 cells assessed as reduction in cell viability; format: functional
HT-29 [12] = experiment: Down regulation of TrxR expression in human HT29 cells at 0.25 to 1 uM incubated for 24 hrs by Western blot analysis; format: functional, cell-based
HT-29 [13] = experiment: Induction of apoptosis in human HT-29 cells assessed as increase in expression of cleaved caspase-3 at 0.25 to 1 uM treated for 24 hrs by western blot analysis; format: functional, cell-based
[14] = Inhibition of TrxR in human HT-29 cells incubated for 90 mins in presence of insulin, NADPH and Trx by DTNB reagent based assay; format: cell-based
L02 = experiment: Cytotoxicity against human L02 cells assessed as cell viability incubated for 24 hrs by MTT assay; format: cell-based; details: L02, 24 h
[15] = Covalent inhibition of TrxR (unknown origin) assessed as covalent bond formation incubated up to 30 mins in presence of NADPH by Ellman's method; design: species or system Homo sapiens
HT-29 [16] = experiment: Antiproliferative activity against human HT-29 cells assessed as reduction in cell viability incubated for 24 hrs by MTT assay; format: functional, cell-based; details: HT-29, 24 h
HT-29 [17] = experiment: Inhibition of TrxR in human HT29 cells assessed as decrease in ASK1 to phosphorylated ASK1 expression ratio at 0.25 to 1 uM incubated for 24 hrs by Western blot analysis; format: cell-based
HT-29 [18] = experiment: Inhibition of TrxR in human HT-29 cells incubated for 24 hrs in presence of insulin, NADPH and Trx by DTNB reagent based assay; format: cell-based
HT-29 [19] = experiment: Inhibition of GPx in human HT-29 cells incubated for 24 hrs in presence of GSH, NADPH and GR measured at 10 secs interval for 4 mins; format: cell-based; details: time 1444.0 min
[20] = Inhibition of TrxR (unknown origin) in presence of NADPH by Ellman's method; design: species or system Homo sapiens
HT-29 [21] = experiment: Induction of mitochondrial membrane potential loss in human HT-29 cells assessed as decrease in red to green fluorescence intensity ratio at 0.125 to 1 uM incubated for 24 hrs by JC-1 dye based fluorescence spectrophotometric analysis; format: functional, cell-based; details: dose microM 0.125-1, time 24.0 hrs
[22] = Inhibition of Escherichia coli Trx incubated for 1.5 hrs in presence of DTT and insulin
Homo sapiens = species on record: Homo sapiens; experiment: Inhibition of TrxR (unknown origin) at 5 uM in presence of NADPH by Ellman's method
[23] = Selectivity index, ratio IC50 for human L02 cells to IC50 for human HT-29 cells; format: toxicity; details: L02 cells versus HT-29 cells, read-out: Ratio IC50
HT-29 [24] = experiment: Induction of apoptosis in human HT-29 cells assessed as decrease in expression of Bcl-2 at 0.25 to 1 uM treated for 24 hrs by Western blot analysis; format: functional, cell-based
HT-29 [25] = experiment: Cell cycle arrest in human HT-29 cells assessed as accumulation at G2/M phase incubated for 24 hrs by propidium iodide staining based flow cytometry; format: functional; details: dose microM 0.125-0.5, time 24.0 hrs
HepG2 = experiment: Antiproliferative activity against human HepG2 cells assessed as reduction in cell viability incubated for 24 hrs by MTT assay; format: functional, cell-based; details: HepG2, 24 h
[26] = Selectivity index, ratio IC50 for human HK2 cells to IC50 for human HT-29 cells
[27] = biological target: T2, Glutathione reductase, mitochondrial (Homo sapiens) (UniProt P00390); experiment: Inhibition of GR in human HT-29 cells incubated for 24 hrs in presence of GSSG and NADPH; format: cell-based
T2 sequence (whole entry): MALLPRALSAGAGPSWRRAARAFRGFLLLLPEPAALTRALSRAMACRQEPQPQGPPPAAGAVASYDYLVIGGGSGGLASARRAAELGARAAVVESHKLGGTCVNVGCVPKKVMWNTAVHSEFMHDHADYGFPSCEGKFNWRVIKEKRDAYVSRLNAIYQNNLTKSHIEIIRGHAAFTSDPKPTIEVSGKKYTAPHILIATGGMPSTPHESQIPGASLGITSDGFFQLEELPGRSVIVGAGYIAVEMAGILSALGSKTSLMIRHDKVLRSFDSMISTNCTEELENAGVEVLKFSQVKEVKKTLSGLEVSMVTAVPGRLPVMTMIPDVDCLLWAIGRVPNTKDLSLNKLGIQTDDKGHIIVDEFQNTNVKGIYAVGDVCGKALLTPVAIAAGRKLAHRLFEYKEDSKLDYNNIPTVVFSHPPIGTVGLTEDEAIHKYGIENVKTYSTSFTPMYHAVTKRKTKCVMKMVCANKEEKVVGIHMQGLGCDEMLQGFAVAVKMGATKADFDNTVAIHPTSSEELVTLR

[28] = Binding affinity to NAC assessed as sulfhydryl group-adduct formation at 5 mg incubated for 1.5 hrs by LC-MS/MS analysis
HT-29 [29] = experiment: Induction of apoptosis in human HT-29 cells assessed as cell death at 0.25 to 1 uM incubated for 24 hrs by Annexin V-FITC/propidium iodide staining based flow cytometry; format: functional
Rattus norvegicus [30] = species on record: Rattus norvegicus; experiment: Binding affinity to rat liver TrxR assessed as SGGDILQSGCUG-adduct formation by measuring retention time at 10 uM incubated for 1.5 hrs by LC-MS/MS analysis
[31] = Binding affinity to NAC assessed as sulfhydryl group-adduct formation at 5 mg by online NMR analysis
HT-29 [32] = experiment: Down regulation of Trx expression in human HT29 cells at 0.25 to 1 uM incubated for 24 hrs by Western blot analysis; format: functional, cell-based
[33] = Inhibition of TrxR in human HT-29 cells incubated for 30 mins in presence of insulin, NADPH and Trx by DTNB reagent based assay; format: cell-based
HK-2 = experiment: Cytotoxicity against human HK2 cells assessed as cell viability incubated for 24 hrs by MTT assay; format: cell-based; details: HK-2, 24 h
HT-29 [34] = experiment: Antiproliferation activity against human HT-29 cells assessed as reduction in monoclonal ability incubated for 24 hrs followed by fresh medium supplementation every 2 to 3 days for 14 days by crystal violet staining based analysis; format: functional, cell-based; details: dose microM 0.015-0.06, time 24.0 hrs
MCF7 = experiment: Antiproliferative activity against human MCF7 cells assessed as reduction in cell viability incubated for 24 hrs by MTT assay; format: functional, cell-based; details: MCF7, 24 h
Rattus norvegicus [35] = species on record: Rattus norvegicus; experiment: Binding affinity to rat liver TrxR assessed as RSGGDILQSGCUG-adduct formation by measuring retention time at 10 uM incubated for 1.5 hrs by LC-MS/MS analysis
[36] = Binding affinity to DTT assessed as sulfhydryl group-adduct formation at 5 mg incubated for 1.5 hrs by LC-MS/MS analysis

pIC50 (HCT-116 [4]): 6.89 | pIC50 [6]: 6.06 | inhibition [8]: Active | pIC50 [14]: 6.07 | pKi [15]: 6.03 | pIC50 (HT-29 [16]): 7.10 | pIC50 [20]: 6.07 | pIC50 [22]: < 5.60 | inhibition (Homo sapiens): Active | pIC50 (HepG2): 6.96 | inhibition [27]: Active | Activity [28]: Active | Retention time (Rattus norvegicus [30]): 31.7 min | Activity [31]: Active | pIC50 [33]: 6.01 | pIC50 (MCF7): 6.48 | Retention time (Rattus norvegicus [35]): 33.9 min | Activity [36]: Active
Compound: CC(=O)O[C@H]1C=C([C@H](C)[C@H]2CC(C)=C(C)C(=O)O2)[C@@]2(C)CC[C@H]3[C@@H](C[C@H]4O[C@]45[C@@H](OC(=O)/C=C/C(=O)N(C)C)C=CC(=O)[C@]35C)[C@]12O
inhibition (HT-29 [1]): Active | Activity (HT-29 [2]): Active | Activity (HT-29 [3]): Active | Activity (HT-29 [5]): Active | Activity (HT-29 [7]): Active | inhibition (HCT-116 [9]): Dose-dependent effect | inhibition (HT-29 [10]): Dose-dependent effect | Ratio IC50 (HT-29 [11]): 30 | Activity (HT-29 [12]): Active | Activity (HT-29 [13]): Active | pIC50 (L02): 5.28 | inhibition (HT-29 [17]): Active | inhibition (HT-29 [18]): Active | inhibition (HT-29 [19]): Active | Activity (HT-29 [21]): Active | selectivity ratio [23]: 66 | Activity (HT-29 [24]): Active | Activity (HT-29 [25]): Dose-dependent effect | Ratio IC50 [26]: 56 | Activity (HT-29 [29]): Active | Activity (HT-29 [32]): Active | pIC50 (HK-2): 5.34 | Activity (HT-29 [34]): Dose-dependent effect
